Consider one compound from patent publication US11253527B2, “Method and composition for inhibiting virus infection” (priority 2019, dated 2022).

For one series, the system named is HepG2.2.15 cells. In words: MTT cell viability, HepG2.2.15 cells. The conditions noted are these: 48 h, 50 μg/ml.
The subject of the next series is HSV-1 virus (KOS strain). In words: HSV-1 viral yields in supernatants of OC3 cells, plaque assay. It counts as cell-based, Herpes simplex virus type 1. The method, then:
FIG. 4 provides Experimental conditions for evaluation of the effects of Antrodia camphorata fruit body extracts on oral epithelial cells during HSV-1 infection. Three experimental conditions, including no-treatment, pre-treatment and post-treatment were performed. Oral epithelial cells (OC3) were pre-treated with media only or media containing each Antrodia camphorata extracts for 2 hours, followed by HSV-1 inoculation. Cells were infected with HSV-1 viruses at multiplicity of infection (MOI) of 5 or mock infected for 1 hour at 37° C. for viral entry to occur. Antrodia camphorata extracts were not added during viral inoculation for 1 hour to avoid of its direct effects on virions. Mock- or HSV-1-infected cells were further incubated in the absence or presence of the drug for 19 hours.
The oral epithelial cell line (OC3) was used to determine the possible effects of Antrodia camphorata extracts on oral epithelial cells during HSV-1 infection. Cell monolayers were treated as illustrated in FIG. 4 (please also see details in the Materials and Methods section). Three experimental conditions, including no-treatment, pre-treatment and post-treatment were performed. Whether these Antrodia camphorata extracts have effects before or after viral infection were examined. The effects of Antrodia camphorata extracts on viral propagation (viral yields) in infected oral epithelial cells were examined. At 19-20 h post infection, viral yields in the supernatants were determined using the plaque assay. Viability of treated cells was also determined using the MTT assay for the mitochondrial dehydrogenase activity. Moreover, purified HSV-1 virions were directly treated with Antrodia camphorata extracts to examine whether Antrodia camphorata extracts exert anti-HSV-1 activity directly on virus particles before viral entry.
HSV-1 virus (KOS strain) from the extra-cellular fluid of infected Vero cells was purified using sucrose-gradient. Purified viruses were stored frozen in small aliquots. Purified viruses were titered using the plaque assay.
Oral epithelial cells (OC3 cells) were infected with HSV-1 at multiplicity of infection (MOI) of 5 or mock infected for 1 h at 37° C. for viral entry to occur. Unbound viruses were removed. Infected cells were then overlaid with appropriate media and incubated at 37° C. The Antrodia camphorata fruit body extracts used were A2 (Antrodia camphorata extracts), A3 (dehydrosulphurenic acid), A4 (antcin K), A5 (versisponic acid), and A6 (dehydroeburicoic acid). For the effects of Antrodia camphorata fruit body extracts, oral cells were treated in three different experimental conditions (FIG. 1): (1) no treatment, (2) pre-treatment with each Antrodia camphorata fruit body extracts before infection and (3) post-treatment with each Antrodia camphorata fruit body extracts after infection. Purified HSV-1 virions were also incubated directly with media only or media containing Antrodia camphorata fruit body extracts. The viral infectivity of treated virions was then examined using the plaque assay.
Viral titers in the supernatants after infection were determined using the plaque assay. Cells were grown to confluence and infected with tenfold serial dilution of the samples. Cells were then overlaid with medium containing 3% carboxymethylcellulose to prevent the formation of secondary plaques. Cells were incubated until well-defined clear plaques were formed. Cells were fixed with 3.7% formaldehyde and stained with crystal violet. Plaques were observed and counted under an inverted microscope. The viral yield of the media-pretreated HSV-1 infected control was considered to be 100%.

The subject of another series is HBV. Description: HBV replication, assembly, secretion in HepG2.2.15 cells (HBsAg/HBeAg ELISA, HBV DNA real-time PCR). The series is classed as cell-based, Hepatitis B virus. The method, then:
HepG2.2.15 cells were cultured with different concentrations of Antrodia camphorata fruit body extracts for 48 h, then the culture medium was collected to measure HBV HBsAg by ELISA. HepG2, containing no HBV, was used as a negative control (NC). The results are expressed as a percentage of the non-drug-treated positive control (NT) and are shown as mean±SD for three independent experiments. *, P<0.05; **, P<0.01; ***, P<0.001.
HepG2.2.15 cells were cultured with different concentrations of Antrodia camphorata fruit body extracts for 48 h, then the culture medium was collected to measure HBV HBeAg by ELISA. HepG2, containing no HBV, was used as a negative control (NC). The results are expressed as a percentage of the non-drug-treated positive control (NT) and are shown as mean±SD for three independent experiments. *, P<0.05; **, P<0.01; ***, P<0.001.
HepG2.2.15 cells were cultured with different concentrations of Antrodia camphorata fruit body extracts for 48 h, then the culture medium was collected to measure HBV DNA by real-time PCR. Plasmid p1.3HBcl, which contains a 1.3-fold HBV genome (ayw subtype (Galibert et al., 1979)), was used as standard in parallel PCR reactions, while HepG2, containing no HBV, was used as a negative control (NC). The results are expressed as a percentage of the non-drug-treated positive control (NT) and are shown as mean±SD for three independent experiments. *, P<0.05; **, P<0.01; ***, P<0.001.
Continuous HBV proliferation can be achieved in HepG2.2.15 cells (RRID:CVCL_L855) stably transfected with the HBV genome of the adw2 subtype. HepG2.2.15 cells are used because of the unlimited supply and constant quality and were maintained in Dulbecco's modified Eagle medium (DMEM; Invitrogen) supplemented with 10% heat-inactivated fetal bovine serum (FBS; Thermo) plus 100 units of penicillin and 100 µg of streptomycin per ml (both from Invitrogen).
The culture medium from drug-treated HepG2.2.15 cells is clarified by centrifugation at 1,000×g at 4° C. for 10 min, and then the supernatant is layered on top of a 20% sucrose cushion (20% sucrose, 20 mM HEPES, pH 7.4, 0.1% bovine serum albumin [BSA]) and centrifuged at 197,000×g for 3 h at 4° C. to pellet the HBV particles, which are then concentrated 100 fold to detect HBV DNA.
Total DNA is extracted with a Genomic DNA isolation kit (Nexttec Biotechnologie, Germany). Total RNA is isolated from cultured cells using TRIzol® reagent (Invitrogen). Reverse transcription is performed with the RNA templates, AMV reverse transcriptase (Roche), and oligo-dT primer. The products are subjected to real-time PCR with primer sets of specific genes and SYBR Green PCR Master Mix (Bio-Rad). The primer sets used for HBV core, HBsAg, cccDNA and GAPDH are described. The results are analyzed with the iCycler iQ real-time PCR detection system (Bio-Rad). Plasmid p1.3HBcl is prepared at 10-fold dilutions (2*10^4-2*10^9 […] to generate a standard curve in parallel PCR reactions.
To test whether Antrodia camphorata fruit body extracts had any effect on HBV genome replication, assembly, or secretion, HepG2.2.15 cells, which stably transfected with HBV genome, were used to incubate with four Antrodia camphorata fruit body extracts for 48 hours, then HBsAg, HBeAg and HBV DNA collected from medium were measured by ELISA and real-time PCR.
(In general: In an ELISA, binding on a coated surface is turned into a signal by an enzyme label.)

[1] abbreviates: 48 h, at 20 μg/ml and 50 μg/ml, percentage of non-drug-treated control.

Take `C=C(CC[C@@H](C)[C@H]1CC[C@H]2C3=C(C(=O)C[C@]12C)[C@@]1(C)CCC(O)[C@](C)(O)C1CC3O)C(C)C(=O)O` (some centres unmarked) [A4, antcin K]: the “toxic effect (MTT cell viability)” value in the series with HepG2.2.15 cells is recorded as “little or no toxic effect”. The “viral yields in the supernatants, post-treatment” value with HSV-1 virus (KOS strain) (OC3 cells post-treated after HSV-1 infection (MOI 5), 19 hours) was “significantly reduced”. Moreover, the “viral yields in the supernatants, pre-treatment” value in the series on HSV-1 virus (KOS strain) (OC3 cells pre-treated 2 hours before HSV-1 infection (MOI 5)) was “little effects”. The “viral yield reduced to” value with HSV-1 virus (KOS strain) (infected OC3 cells post-treated with 100 μg/ml, media control = 100%) came to 19%. Moreover, the “HBV replication, the assembly or release of viral particles” value in the series with HBV is “significantly inhibits”. Besides, the “HBV DNA repressed to” value in the series on HBV (48 h, 50 μg/ml, percentage of non-drug-treated control) is reported as 55%. Further, in the series with HBV (setting [1]), the “level of HBeAg in the culture supernatant, decreased to” value is 50-60% and the “level of HBsAg in the culture supernatant, decreased to” value is given as 50-60%. Also, in the series on HBV (FIG. 2A), the “HBsAg protein levels, dose dependence” value was “marked dose-dependent reduction”. Further, in the series with HBV (FIG. 2B), the “core protein levels, dose dependence” value is reported as “marked dose-dependent reduction”. In addition, the “HBV DNA in particles, dose dependence” value with HBV (FIG. 2C) is listed as “marked dose-dependent reduction”.
